Values of other authors in patent EP2143418A1, “Antiperspirant compositions” (Unilever PLC, priority 2008, dated 2010).

System: Staphylococcus epidermidis
Conditions: 80% or greater reduction in growth of inoculum, 16 to 24 hours at 37°C

MIC | SMILES
greater than 1 mg.ml^-1 | CCO [ethanol]
ca. 25 µg.ml^-1 | CC(C)=CCCC(C)=CCCC(C)=CCO [farnesol, 3,7,11-trimethyldodeca-2,6,10-trienol]

SMILES | MIC
Oc1cc(Cl)ccc1Oc1ccc(Cl)cc1Cl [triclosan, 2',4,4'-trichloro,2-hydroxy-diphenyl ether] | 0.01 to 10 µg/mL
